According to patent US11571421B2, “GABAA positive allosteric modulator compounds for treatment of itch and/or dermatitis” (NeuroCycle Therapeutics, Inc., priority 2018, dated 2023):

Experiments:
Type in all cases: in vivo
[1] = system: Male C57BL/6 Mice; experiment: Sedative effects, open field arena activity (Example 4); conditions: per oral 1, 3, 10, 30 and 100 mg/kg; recorded for one hour starting one hour after injection
Description: In order to exclude any sedative effects PF-06372865 might have on mice, a dose-response experiment is included. The mice receive per oral injections of PF-06372865 in varying doses (vehicle, 1, 3, 10, 30 and 100 mg/kg). After injection, the mice are placed in an open field arena and their activity is recorded for one hour starting one hour after injection.

[2] = system: Oxazolone-induced Itch Model in Male C57BL/6 Mice; experiment: Oxazolone-induced dermatitis model of chronic itch (Example 7)
Description: In order to assess: the antipruritic effect of PF-06372865 in a clinically relevant disease, the development of a tolerance towards the antipruritic effect of PF-06372865, and the effect of PF-06372865 in reducing dermatitis after prolonged treatment, the oxazolone-induced dermatitis model of chronic itch is used. To this end, wild-type C57Bl/6 mice are treated with 100 μL of 10% oxazolone (4-Ethoxymethylene-2-phenyl-2-oxazolin-5-one) dissolved in acetone/olive oil (4:1) on the nape of the neck. From day 7 to day 31 these mice are treated every other day with 100 μL 1% oxazolone to induce and maintain dermatitis and chronic itch. From day 17 onward, mice are treated with intraperitoneal injection of vehicle or 10 mg/kg PF-06372865 for thirteen consecutive days. On day 31, mice are given either intraperitoneal injection of vehicle or PF-06372865 (10 mg/kg). The number of scratching bouts directed to the nape of the neck between 15 to 210 min after injection are recorded. […] This is independent of the treatment they received from day 7 to day 30. […] To quantify the severity of skin lesions, a dermatitis score are determined. Hemorrhage/erythema, dryness/scaring and hyperplasia (Yamada et. al. Exp Dermatol. 2016, 25, 611-617) are scored as 0 (none), 1 (mild), 2 (moderate) or 3 (severe) once per day resulting in a score between 0 and 9. […]

[3] = system: Dry Itch Model in Male C57BL/6 Mice; experiment: Dry skin itch model (Example 8); conditions: 10 mg/kg intraperitoneal; 15 to 210 min after injection
Description: In order to assess the antipruritic effect of PF-06372865 in another clinically relevant disease, the dry skin model of dermatitis is used. In the dry skin model, mice are treated with a mixture of acetone and diethylether (1:1) on the shaved nape of the neck for 15 s, followed by distilled water for 30 sec, twice daily for 10 days. On the day of the experiment, mice received intraperitoneal injection of vehicle or PF-06372865 (10 mg/kg). The number of scratching bouts directed to the nape of the neck between 15 to 210 min after injection are recorded.

[4] = system: Oxazolone-Induced Dermatitis Model in male C57BL/6 mice; experiment: Repeat dose Oxazolone-Induced Dermatitis Model (Example 10)
Description: Male C57BL/6 Mice (8-10 weeks) are used in the study. Mice are housed one per cage and are maintained at controlled environmental conditions with 12-h light and dark cycles. The temperature and humidity of the room are maintained between 22±3° C. and 55±5%, respectively. The maximum and minimum temperature and relative humidity in the experimental rooms are recorded once daily.
NCT10004 phosphate (adjusted with salt correction factor) is weighed into a clean glass container. 0.5% Methyl Cellulose (MC) is added, and the resulting mixture is mixed well using mild vortexing and stirred for 40 minutes to provide a homogeneous suspension.
PF-06372865 is weighed into a clean mortar. […]
Animals are dosed with respective treatment groups for fourteen consecutive Days (From Day 17-Day 30). To quantify any changes in the severity of skin lesions, Animals are assigned dermatitis scores prior to dosing and daily there after starting from Day 17 and ending on Day 30.
Skin lesion are observed and scored as follows: Hemorrhage/erythema, dryness/scaling and hyperplasia are scored as 0 (none), 1 (mild), 2 (moderate) or 3 (severe) once per day resulting in a composite score between 0 and 9. […]
Animals are observed by an observer blind to the treatment group for a period of 210 minutes post Oxazolone application. Number of scratching bouts directed to the nape between 15 to 210 min after dosing are recorded. […]

CCn1cnc2c(-c3ccc(F)c(-c4ccc(S(=O)(=O)CC)cc4OC)c3)cnnc21 [PF-06372865]
open field activity compared to vehicle [1]: significant increase in activity
skin lesions (dermatitis score) ([2]; 10 mg/kg intraperitoneal for thirteen consecutive days): significant reduction in skin lesions
scratching bouts compared to vehicle injection ([2]; 10 mg/kg intraperitoneal on day 31, 15 to 210 min after injection): significant reduction in scratching bouts
scratching bouts compared to vehicle injection [3]: significant reduction in scratching bouts
skin lesions (lesion score) ([4]; 1 mg/kg BID PO, Day 17-Day 30): decreases skin lesions comparable to the NCT10004
scratching bouts ([4]; 1 mg/kg PO, 15-210 minutes): reduces scratching bouts
